Test results as given in article PMC9863266, “Preclinical Studies and Drug Combination of Low-Cost Molecules for Chagas Disease” (Pharmaceuticals, 2022).
Where “and” joins values, the source holds several entries; their conditions need not be identical. Equal entries are not always repeated.

Experiments:
[1] = test system: CL Brener clone of T. cruzi; experiment: Acute murine model of Chagas disease; assay type: in vivo, Balb/c mice
Description: Three-month-old Balb/c mice were infected (day 0) with infected blood from mice at the beginning of the peak of parasitemia (parasitemia greater than 1.0 × 10^6 p /mL with the CL Brener clone of T. cruzi) by intraperitoneal injection (10,000 parasites per mouse). Parasitemia was followed from the fourth-day post-infection until all the mice in the group were positive. Parasitemia measurements were performed by optical microscopy. Once all the mice were positive, the treatment was started. The treatment lasted 15 consecutive days; the compounds were administered orally by intragastric cannula once a day. Parasitemia was monitored weekly. At 30 and 60 days, 200 μL of blood was extracted from the mouse tail for serological tests (ELISA test) to detect antigens of T. cruzi. Day 60 was the end of the experiment, and the animals were sacrificed.
Hemoconcentration and counting micromethod: the mice were bled by pricking the tail and taking the blood with capillaries. One capillary per mouse draws 8-18 mm in height of blood. The millimeters were converted to μL by a table previously described and calibrated in the laboratory. The capillaries were centrifuged at 3000× g for 40 s. The parasitic load in the capillary was observed by optical microscopy (OM) in the capillary: the red blood cells (GR) were distributed at one end and the supernatant serum at the other end, at the interface is the trypomastigotes. Then, the capillary was cut a few mm on the interface towards the GR part and its content was spread on a slide, covered with a coverslip. Then, the total number of parasites in 50 fields (OM at 40× magnification) was counted. This sum was then multiplied by 1/50 to obtain the average number of trypomastigotes per field, corresponding to the number of trypanosomes per 5 mm^3. This was then compared to the samples from control animals. The mean and standard deviation were calculated by using OriginPro9 and GraphPad Prism 5. Comparisons of parasite suppression were completed by the analysis of variance (two-way ANOVA as a […] statistical test).

[2] = test system: Leishmania spp (cutaneous) promastigotes; set-up: method as in earlier work; details: read-out: In vitro anti-Leishmania spp (cutaneous) activity (IC50); cited from earlier work
[3] = test system: T. cruzi amastigotes; set-up: method as in earlier work; details: read-out: In vitro anti-T. cruzi activity (multiple strains) (IC50); cited from earlier work
[4] = test system: Leishmania infantum; set-up: method as in earlier work; details: amastigotes; read-out: In vitro anti-Leishmania infantum (visceral) activity (IC50); cited from earlier work
[5] = test system: cruzipain; details: cited from earlier work
[6] = test system: zebrafish embryos; set-up: method as in earlier work; details: cited from earlier work
[7] = test system: Salmonella typhimurium strains TA98, T100, T102, TA1535, and TA1537; details: cited from earlier work
[8] = test system: CD1 and Balb/c mice; set-up: method as in earlier work; details: cited from earlier work
[9] = test system: CD-1 mice; details: mouse, in vivo; cited from earlier work
[10] = test system: epimastigote form of T. cruzi, Tulahuen 2 strain; experiment: Mechanism of death by flow cytometry, AV/IP labeling; assay type: cell-based; details: 24 h; 20 × IC50
Description: Parasites were immediately analyzed on an Accuri C6 flow cytometer (BD Bioscience, Franklin Lakes, New Jersey, U.S.). […] Ten thousand events were analyzed for each of the two independent experiments. Data were analyzed using BD CSampler software (BD Bioscience). Untreated parasites were used as a control. For the positive control of apoptosis and necrosis, the parasites were treated with hydrogen peroxide (H2O2) 50 µM and 100 µM for 2.5 h, respectively. These single-spot controls were used to calculate color compensation for flow cytometry.

[11] = test system: CD-1 mice; experiment: Micronucleus test in mice (genotoxicity); details: positive control, 50 mg/kg intraperitoneal, single dose 24 h before sacrifice
Description: The protocol was approved by the Paraguayan ethics committee for animal experimentation (No. IORG0010088). […] The treatment of each group was repeated five times, totaling 5 animals per concentration. The route used in the administration of the negative control and the compound (groups I and II) was oral, using an esophageal cannula and in group III the route was intraperitoneal. The intervention was carried out in two doses: 24 and 48 h before sacrifice, except for cyclophosphamide, which was administered in a single dose, 24 h before sacrifice. At the end of the experiment, the femurs were harvested, and the red bone marrow was removed with fetal bovine serum, kept at 37 °C. […] Samples were stained with 4 % Giemsa stain for 3 min and analyzed under an immersion light microscope. For each treated animal, 1000 polychromatic erythrocytes (EPCs) were counted, including those that presented micronucleus (EPCMNs). The ratio of polychromatic erythrocytes (EPC) vs. normochromatic erythrocytes (ENC), upon counting 100 cells, was also evaluated. The proportion of EPCMNs was calculated for each group, and the treated groups with the compound and cyclophosphamide were compared with the negative control group. The statistical analysis was carried out from the individual values of the evaluated parameters, calculating the mean values and their standard deviations for each of the experimental groups. […]

Compound: O=C(Cn1ccnc1[N+](=O)[O-])NCc1ccccc1 [Bnz, Benznidazole]
- Days Post-Infection of the First Parasitemia Peak ([1]; 10 µmoles/kg/day): 15 days
- Reduction in the Parasitemia Peak (%) ([1]; 10 µmoles/kg/day): 80%
- Survival (%) ([1]; 10 µmoles/kg/day): 100%
- Days Post-Infection of the First Parasitemia Peak ([1]; 38 µmoles/kg/day): 15 days
- Reduction in the Parasitemia Peak (%) ([1]; 38 µmoles/kg/day): 90%
- Survival (%) ([1]; 38 µmoles/kg/day): 100%
- Days Post-Infection of the First Parasitemia Peak ([1]; 48 µmoles/kg/day): 43 days
- Reduction in the Parasitemia Peak (%) ([1]; 48 µmoles/kg/day): 95%
- Survival (%) ([1]; 48 µmoles/kg/day): 100%

Compound: CC(=NNC(N)=S)[C@H]1CC[C@H]2[C@@H]3CC=C4C[C@@H](O)CC[C@]4(C)[C@H]3CC[C@]12C [Compound 1260, 1-(3β-Hydroxy-pregn-5-ene-20E-ylydene)thiosemicarbazide]
- IC50 [2]: < 20000 nM
- IC50 [3]: 100 nM
- IC50 [4]: < 200 nM
- Cruzipain inhibitor (known) [5]: not an inhibitor of cruzipain
- Teratogenicity in zebrafish (LD50) [6]: > 15 µM
- Ames test (mutagenicity) [7]: NO
- Acute oral toxicity in mice (Up and Down test, LD50) [8]: > 2000 mg/kg of body weight
- Micronucleus test in mice (Genotoxicity) [9]: NO

Compound: CC1CS(=O)(=O)CCN1/N=C/c1ccc([N+](=O)[O-])o1 (stereo not shown) [Nfx, Nifurtimox, reference compound]
- AV/IP labeling Q1-UR (double AV+/IP+ labeling) [10]: 59%

Compound: O=P1(N(CCCl)CCCl)NCCCO1 (stereo not shown) [cyclophosphamide, reference compound]
- Micronucleus test in mice (Genotoxicity) (mean of MnPE ±SD) [11]: 36 ± 2 MnPE and 36 ± 2 (cyclophosphamide) MnPE
